Results on four substances are retold here after patent US4868154A, “Stimulation of tear secretion with melanocyte stimulating hormones” (Eye Research Institute of Retina Foundation, priority 1986, dated 1989).

One assay deals with tissue pieces in vitro. To be noted: Jahn et al Eur. J. Biochem 126: 623, 1982; cited from earlier work.
The next assay concerns rabbits with dry eyes. As to the kind of experiment: Tear film osmolality after topical drops in dry eye rabbits. Type of assay: in vivo. To be noted: dry eye rabbit, topical 10 μl drops, 10^-5 M, 10^-4 M and 10^-3 M in buffer, FIGS. 2 to 4; for tear film osmolality compared with buffer alone: tear samples at 6 and 16 minutes. Here is the method: In vivo examples in accordance with the invention were conducted on rabbits with dry eyes. The dry eye disorder is created by surgically closing the duct that carries fluid from the main lacrimal gland to the tear film and surgically removing the nictitans and harderian glands. This leaves intact only the accessory glands that lie on the surface of the eye. These rabbits develop increased tear film osmolality soon after the operation, a finding that is understood to be due to decreased tear production, and that is characteristic of dry eye. It is recognized that results of opthalmologic tests using rabbits has close correlation with humans and therefore the results carry over to humans
The effect on tear film osmolality of topically applied isotonic buffer solution with and without melanocyte stimulating hormones which activate the melanotropin receptors was studied in the dry eye rabbit. All test drops were ten microliters (μl) in volume. Tear samples were taken with a micropipette system, in the manner described in the article entitled "Osmolarity of Tear Microvolumes in Keratoconjunctivitis Sicca", by Gilbard et al, Arch Ophthalmol 96:677, 1978. Osmolarity was measured by freezing-point depression.
The following protocol was used to test the effects of the topically applied melanotropins. At zero time a tear sample was taken for measurement of osmolality. At one minute the test drop was instilled. At six and at sixteen minutes, tear samples were taken for osmolality measurements. Five minutes after the sixteen minute sample, the above sequence was repeated several times to test additional drops.
The following drops were instilled in the test eye and after each such instillation, test samples were taken as stated: (1) buffer solution, (2) buffer solution containing a melanocyte stimulating hormone at a low dose, (3) buffer solution, (4) buffer solution containing a melanocyte stimulating hormone at a moderate dose, (5) buffer solution, (6) buffer solution containing a melanocyte stimulating hormone at a higher dose. The melanocyte stimulating hormone may be obtained from Peninsula Laboratories,Inc., Belmont California. The results are shown in FIGS. 1 through 4 A, B, and C, where FIGS. 1 through 4 each represent results obtained from the same rabbit.

Another assay has as its system lacrimal gland. To be noted: topical administration; Gilbard and Dartt, patent pending; cited from earlier work.
The next assay deals with lacrimal gland cells. The settings on record: Dartt et al, Am. J. Physio. 247: G502, 1984; cited from earlier work.

Where no end group is shown, it is not given here.

In the case of “adrenocorticotropic hormone (SYSMEHFRWGKPVGKKRRPVKVYPNGAEDESAEAFPLEF; Corticotropin; UniProt P01189 138-176, looked up) [hormone cited from literature as stimulating protein secretion in vitro]”, in the assay on tissue pieces in vitro, the protein secretion entry is listed as “stimulate protein secretion”.

Consider “beta-melanocyte stimulating hormone [beta-MSH]”, for which, in the assay with rabbits with dry eyes, the “dose dependence of the decrease in tear film osmolality” value is recorded as “dose-dependent decrease in tear film osmolality” and the “tear film osmolality compared with buffer alone” value was “lowers the tear film osmolality more effectively than buffer alone”.

For “gamma-melanocyte stimulating hormone [gamma-MSH]”, in the assay on rabbits with dry eyes, the “dose dependence of the decrease in tear film osmolality” value is reported as “dose-dependent decrease in tear film osmolality” and the “tear film osmolality compared with buffer alone” value is “lowers the tear film osmolality more effectively than buffer alone”.

As for “vasoactive intestinal peptide (HSDAVFTDNYTRLRKQMAVKKYLNSILN; ends and bridges not checked; UniProt P01282 125-152, looked up) [peptide cited from prior work as stimulating lacrimal gland fluid secretion]”, the “lacrimal gland fluid secretion” value in the assay on lacrimal gland is “stimulates lacrimal gland fluid secretion”. In addition, the “cyclic AMP levels in lacrimal gland cells” value in the assay with lacrimal gland cells is “increase cyclic AMP levels”.
